Results taken from ChEMBL document CHEMBL1148662, “Activation of mitogen activated protein kinase (MAPK) during D-galactosamine intoxication in the rat liver” (2006).
Calls of active or inactive are those of the source. No cut-off for these calls is given here.

Legend:
Rattus norvegicus [1] = assay: Increase in phosphorylated p38 MAPK level in Wistar rat at 1 g/kg, ip after 6 hrs relative to control; type: functional, organism-based
Rattus norvegicus [2] = assay: Increase in plasma glutamate pyruvate transaminase level in Wistar rat at 1 g/kg, ip after 12 hrs relative to control; type: functional
Rattus norvegicus [3] = assay: Increase in plasma glutamate oxaloacetate transaminase level in Wistar rat at 1 g/kg, ip after 1.5 hrs relative to control; type: functional
Rattus norvegicus [4] = assay: Increase in hepatic vitamin C level in Wistar rat at 1 g/kg, ip after 6 hrs relative to control; type: functional
Rattus norvegicus [5] = assay: Increase in plasma glutamate pyruvate transaminase level in Wistar rat at 1 g/kg, ip after 3 hrs relative to control; type: functional
Rattus norvegicus [6] = assay: Increase in plasma glutamate pyruvate transaminase level in Wistar rat at 1 g/kg, ip after 6 hrs relative to control; type: functional
Rattus norvegicus [7] = assay: Increase in plasma glutamate pyruvate transaminase level in Wistar rat at 1 g/kg, ip after 24 hrs relative to control; type: functional
Rattus norvegicus [8] = assay: Increase in phosphorylated JNK level in Wistar rat at 1 g/kg, ip after 3 hrs relative to control; type: functional, organism-based
Rattus norvegicus [9] = assay: Increase in hepatic vitamin C level in Wistar rat at 1 g/kg, ip after 3 hrs relative to control; type: functional
Rattus norvegicus [10] = assay: Increase in plasma glutamate oxaloacetate transaminase level in Wistar rat at 1 g/kg, ip after 24 hrs relative to control; type: functional
Rattus norvegicus [11] = assay: Increase in plasma glutamate oxaloacetate transaminase level in Wistar rat at 1 g/kg, ip after 3 hrs relative to control; type: functional
Rattus norvegicus [12] = assay: Increase in hepatic vitamin C level in Wistar rat at 1 g/kg, ip after 12 hrs relative to control; type: functional
Rattus norvegicus [13] = assay: Increase in hepatic vitamin C level in Wistar rat at 1 g/kg, ip after 1.5 hrs relative to control; type: functional
Rattus norvegicus [14] = assay: Increase in plasma glutamate pyruvate transaminase level in Wistar rat at 1 g/kg, ip after 1.5 hrs relative to control; type: functional
Rattus norvegicus [15] = assay: Increase in phosphorylated ERK level in Wistar rat at 1 g/kg, ip after 3 hrs relative to control; type: functional, organism-based
Rattus norvegicus [16] = assay: Increase in plasma glutamate oxaloacetate transaminase level in Wistar rat at 1 g/kg, ip after 12 hrs relative to control; type: functional
Rattus norvegicus [17] = assay: Increase in hepatic vitamin C level in Wistar rat at 1 g/kg, ip after 24 hrs relative to control; type: functional
Rattus norvegicus [18] = assay: Increase in plasma glutamate oxaloacetate transaminase level in Wistar rat at 1 g/kg, ip after 6 hrs relative to control; type: functional

In the case of `N[C@H]1C(O)O[C@H](CO)C(O)[C@@H]1O` (single isomer, unassigned) [GLUCOSAMINE], the Activity (Rattus norvegicus [1]) is reported as “Active”, the Activity (Rattus norvegicus [2]) is reported as 426 nmol/g and the Activity (Rattus norvegicus [3]) is reported as 52.3 nmol/g. It also gave an Activity (Rattus norvegicus [4]) of 1118 nmol/g, an Activity (Rattus norvegicus [5]) of 49.7 nmol/g and an Activity (Rattus norvegicus [6]) of 295 nmol/g. The Activity (Rattus norvegicus [7]) was 1519 nmol/g, the Activity (Rattus norvegicus [8]) was “Active” and the Activity (Rattus norvegicus [9]) was 1137 nmol/g. For the same compound, the Activity (Rattus norvegicus [10]) was 2560 nmol/g, the Activity (Rattus norvegicus [11]) was 124 nmol/g and the Activity (Rattus norvegicus [12]) was 1104 nmol/g. The Activity (Rattus norvegicus [13]) was 1571 nmol/g, the Activity (Rattus norvegicus [14]) was 25.8 nmol/g and the Activity (Rattus norvegicus [15]) was “Active”. It also gave an Activity (Rattus norvegicus [16]) of 793 nmol/g, an Activity (Rattus norvegicus [17]) of 978 nmol/g and an Activity (Rattus norvegicus [18]) of 517 nmol/g.
